Data as given in patent US12692254B2, “Benzimidazole inhibitors of PAD enzymes” (BRISTOL-MYERS SQUIBB COMPANY, priority 2018, dated 2026).

The compounds below were run against human PAD4 (hPAD4) (Homo sapiens, UniProt Q9UM07) (assay: RFMS human PAD4 functional assay (rapid-fire mass spectrum)). Conditions: 5 nM hPAD4 enzyme, 250 μM BAEE, 50 μM Calcium; 30 min preincubation, 90 min reaction at 37° C.
human PAD4 (hPAD4), sequence (Q9UM07 whole entry): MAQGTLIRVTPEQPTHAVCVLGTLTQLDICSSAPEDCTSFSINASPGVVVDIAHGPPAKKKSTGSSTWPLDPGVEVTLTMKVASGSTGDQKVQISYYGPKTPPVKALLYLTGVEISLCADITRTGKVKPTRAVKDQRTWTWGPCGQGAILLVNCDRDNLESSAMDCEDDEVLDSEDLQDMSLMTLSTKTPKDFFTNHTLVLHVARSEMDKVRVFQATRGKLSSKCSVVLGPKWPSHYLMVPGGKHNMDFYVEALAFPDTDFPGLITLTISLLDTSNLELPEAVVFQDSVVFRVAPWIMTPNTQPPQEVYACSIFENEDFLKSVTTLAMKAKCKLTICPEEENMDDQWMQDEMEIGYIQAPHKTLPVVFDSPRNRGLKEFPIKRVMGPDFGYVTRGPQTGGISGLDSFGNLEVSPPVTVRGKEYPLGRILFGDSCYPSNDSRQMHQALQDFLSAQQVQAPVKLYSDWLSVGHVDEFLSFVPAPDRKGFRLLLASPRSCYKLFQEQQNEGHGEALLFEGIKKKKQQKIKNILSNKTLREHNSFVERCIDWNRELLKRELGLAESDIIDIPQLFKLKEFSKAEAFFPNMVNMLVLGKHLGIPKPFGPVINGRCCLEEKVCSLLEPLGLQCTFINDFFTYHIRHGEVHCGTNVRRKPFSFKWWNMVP
Type: biochemical
Procedure, shortened: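 PAD4 (10 nM) preincubated 30 min with compound (top final 50 μM), then BAEE substrate added in pH 7.5 HEPES buffer with DTT, 50 μM calcium, TPEN; 90 min at 37° C. After TCA quench, citrulline derivatized with phenyl glyoxal (4 mM final, 30 min, 37° C) and quantified by RapidFire MS against internal standard.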
In the case of COc1cc(C(=O)N2C[C@H]3CC[C@@H]2[C@@H]3N)cc2nc(-c3cc4cccnc4n3CC3CC3)n(C3CN(C(=O)c4ccnc(C#N)c4)C3)c12 [Example 184, 4-(3-{5-[(1R,4R,7R)-7-amino-2-azabicyclo[2.2.1]heptane-2-carbonyl]-2-[1-(cyclopropylmethyl)-1H-pyrrolo[2,3-b]pyridin-2-yl]-7-methoxy-1H-1,3-benzodiazol-1-yl}azetidine-1-carbonyl)pyridine-2-carbonitrile], the IC50 is reported as 309 nM. Compound COc1cc(C(=O)N2C[C@H]3CC[C@@H]2[C@@H]3N)cc2nc(-c3cc4ccccc4n3CC3CC3)n(CC3CN(C(=O)c4ccccc4Cl)C3)c12 [Example 146, (1R,4R,7R)-2-(1-{[1-(2-chlorobenzoyl)azetidin-3-yl]methyl}-2-[1-(cyclopropylmethyl)-1H-indol-2-yl]-7-methoxy-1H-1,3-benzodiazole-5-carbonyl)-2-azabicyclo[2.2.1]heptan-7-amine] has an IC50 of 18 nM. For COc1cc(C(=O)N2C[C@H]3CC[C@@H]2[C@@H]3N)cc2nc(-c3cc4cccnc4n3CC3CC3)n(C3CN(c4cncnc4)C3)c12 [Example 76, (1R,4R,7R)-2-{2-[1-(cyclopropylmethyl)-1H-pyrrolo[2,3-b]pyridin-2-yl]-7-methoxy-1-[1-(pyrimidin-5-yl)azetidin-3-yl]-1H-1,3-benzodiazole-5-carbonyl}-2-azabicyclo[2.2.1]heptan-7-amine], the IC50 was 292 nM. Compound C#CC(=O)N1CC(Cn2c(-c3cc4cccnc4n3CC3CC3)nc3cc(C(=O)N4CC5CCC4[C@@H]5N)cc(OC)c32)C1 (stereo partly drawn) [Example 133, 1-[3-({5-[(1R,4R,7R)-7-amino-2-azabicyclo[2.2.1]heptane-2-carbonyl]-2-[1-(cyclopropylmethyl)-1H-pyrrolo[2,3-b]pyridin-2-yl]-7-methoxy-1H-1,3-benzodiazol-1-yl}methyl)azetidin-1-yl]prop-2-yl-1-one] has an IC50 of 165 nM. Compound COc1cc(C(=O)N2C[C@H](N)C[C@@H](F)C2)cc2nc(-c3cc4ccccc4n3CC3CC3)n(Cc3cc(C)nn3C)c12 [Example 276, (3R,5R)-1-{2-[1-(cyclopropylmethyl)-1H-indol-2-yl]-1-[(1,3-dimethyl-1H-pyrazol-5-yl)methyl]-7-methoxy-1H-1,3-benzodiazole-5-carbonyl}-5-fluoropiperidin-3-amine] has an IC50 of 298 nM. For COc1cc(C(=O)N2C[C@H]3CC[C@@H]2[C@@H]3N)cc2nc(-c3cc4ccccc4n3CC3CC3)n(CC3CN(c4cncc(C#N)c4)C3)c12 [Example 67, 5-[3-({5-[(1R,4R,7R)-7-amino-2-azabicyclo[2.2.1]heptane-2-carbonyl]-2-[1-(cyclopropylmethyl)-1H-indol-2-yl]-7-methoxy-1H-1,3-benzodiazol-1-yl}methyl)azetidin-1-yl]pyridine-3-carbonitrile], the IC50 was 40 nM. COc1cc(C(=O)N2C[C@H]3CC[C@@H]2[C@@H]3N)cc2nc(-c3cc4ccccc4n3CC3CC3)n(Cc3cnn(-c4ccccc4)c3)c12 [Example 253, (1R,4R,7R)-2-{2-[1-(cyclopropylmethyl)-1H-indol-2-yl]-7-methoxy-1-[(1-phenyl-1H-pyrazol-4-yl)methyl]-1H-1,3-benzodiazole-5-carbonyl}-2-azabicyclo[2.2.1]heptan-7-amine] showed an IC50 of 27 nM. Compound COc1cc(C(=O)N2C[C@H]3CC[C@@H]2[C@@H]3N)cc2nc(-c3cc4cccnc4n3CC3CC3)n(CC3CN(c4ncc(Br)cn4)C3)c12 [Example 32, (1R,4R,7R)-2-(1-{[1-(5-bromopyrimidin-2-yl)azetidin-3-yl]methyl}-2-[1-(cyclopropylmethyl)-1H-pyrrolo[2,3-b]pyridin-2-yl]-7-methoxy-1H-1,3-benzodiazole-5-carbonyl)-2-azabicyclo[2.2.1]heptan-7-amine] has an IC50 of 86 nM. COc1cc(C(=O)N2C[C@H]3CC[C@@H]2[C@@H]3N)cc2nc(-c3cc4cccnc4n3CC3CC3)n(C3CN(c4ncccn4)C3)c12 [Example 80, (1R,4R,7R)-2-{2-[1-(cyclopropylmethyl)-1H-pyrrolo[2,3-b]pyridin-2-yl]-7-methoxy-1-[1-(pyrimidin-2-yl)azetidin-3-yl]-1H-1,3-benzodiazole-5-carbonyl}-2-azabicyclo[2.2.1]heptan-7-amine] showed an IC50 of 403 nM. COc1cc(C(=O)N2C[C@H]3CC[C@@H]2[C@@H]3N)cc2nc(-c3cc4cccnc4n3CC3CC3)n(C[C@@H]3CCN(c4ccnc(C)n4)C3)c12 [Example 216, (1R,4R,7R)-2-{2-[1-(cyclopropylmethyl)-1H-pyrrolo[2,3-b]pyridin-2-yl]-7-methoxy-1-{[(3R)-1-(2-methylpyrimidin-4-yl)pyrrolidin-3-yl]methyl}-1H-1,3-benzodiazole-5-carbonyl}-2-azabicyclo[2.2.1]heptan-7-amine] was tested, and the IC50 was 153 nM. COc1cc(C(=O)N2CC3CCC2[C@@H]3N)cc2nc(-c3cc4cccnc4n3CC3CC3)n(CC3CN(S(=O)(=O)c4ccccc4)C3)c12 (stereo partly shown) [Example 326] was tested, and the IC50 was 197 nM. Compound COc1cc(C(=O)N2CC3CCC2[C@@H]3N)cc2nc(-c3cc4cccnc4n3CC3CC3)n(CC3CN(C(=O)c4ccc(C#N)c(F)c4)C3)c12 (stereo partly drawn) [Example 459, 4-[3-({5-[(7R)-7-amino-2-azabicyclo[2.2.1]heptane-2-carbonyl]-2-[1-(cyclopropylmethyl)-1H-pyrrolo[2,3-b]pyridin-2-yl]-7-methoxy-1H-1,3-benzodiazol-1-yl}methyl)azetidine-1-carbonyl]-2-fluorobenzonitrile] has an IC50 of 66 nM. COc1cc(C(=O)N2CC3CCC2[C@@H]3N)cc2nc(-c3cc4cccnc4n3CC3CC3)n([C@H]3C[C@@H](NC(C)=O)C3)c12 (stereo partly drawn) [Example 304, N-[(1s,3s)-3-{5-[(1R,4R,7R)-7-ammo-2-azabicyclo[2.2.1]heptane-2-carbonyl]-2-[1-(cyclopropylmethyl)-1H-pyrrolo[2,3-b]pyridin-2-yl]-7-methoxy-1H-1,3-benzodiazol-1-yl}cyclobutyl]acetamide] was tested, and the IC50 was 2880 nM. Compound COc1cc(C(=O)N2CC3CCC2[C@@H]3N)cc2nc(-c3cc4cccnc4n3CC3CC3)n(Cc3cn[nH]n3)c12 (stereo partly drawn) [Example 485, (7R)-2-{2-[1-(cyclopropylmethyl)-1H-pyrrolo[2,3-b]pyridin-2-yl]-7-methoxy-1-[(2H-1,2,3-triazol-4-yl)methyl]-1H-1,3-benzodiazole-5-carbonyl}-2-azabicyclo[2.2.1]heptan-7-amine] has an IC50 of 47 nM. With N[C@@H]1C2CCC1N(C(=O)c1ccc3c(c1)nc(-c1cc4cccnc4n1CC1CC1)n3CC1CN(C(=O)c3ccccc3)C1)C2 (stereo partly drawn) [Example 465, (7R)-2-{1-[(1-benozylazetidin-3-yl)methyl]-2-[1-(cyclopropylmethyl)-1H-pyrrolo[2,3-b]pyridin-2-yl]-1H-1,3-benzodiazole-5-carbonyl}-2-azabicyclo[2.2.1]heptan-7-amine] the IC50 was 83 nM. COc1cc(C(=O)N2C[C@H]3CC[C@@H]2[C@@H]3N)cc2nc(-c3cc4ccccc4n3CC3CC3)n(Cc3ccon3)c12 [Example 268, (1R,4R,7R)-2-{2-[1-(cyclopropylmethyl)-1H-indol-2-yl]-7-methoxy-1-[(1,2-oxazol-3-yl)methyl]-1H-1,3-benzodiazole-5-carbonyl}-2-azabicyclo[2.2.1]heptan-7-amine] gave an IC50 of 114 nM. In the case of COc1cc(C(=O)N2C[C@H]3CC[C@@H]2[C@@H]3N)cc2nc(-c3cc4cccnc4n3CC3CC3)n(CC3CN(c4cncnc4C#N)C3)c12 [Example 46, 5-[3-({5-[(1R,4R,7R)-7-amino-2-azabicyclo[2.2.1]heptane-2-carbonyl]-2-[1-(cyclopropylmethyl)-1H-pyrrolo[2,3-b]pyridin-2-yl]-7-methoxy-1H-1,3-benzodiazol-1-yl}methyl)azetidin-1-yl]pyrimidine-4-carbonitrile], the IC50 is reported as 118 nM. COc1cc(C(=O)N2C[C@H]3CC[C@@H]2[C@@H]3N)cc2nc(-c3cc4ccccc4n3CC3CC3)n(CCC3CCS(=O)(=O)CC3)c12 [Example 245, ((1R,4R,7R)-7-amino-2-azabicyclo[2.2.1]heptan-2-yl)(2-(1-(cyclopropylmethyl)-1H-indol-2-yl)-1-(2-(1,1-dioxidotetrahydro-2H-thiopyran-4-yl)ethyl)-7-methoxy-1H-benzo[d]imidazol-5-yl)methanone] gave an IC50 of 20 nM. COc1cc(C(=O)N2CC3CCC2[C@@H]3N)cc2nc(-c3cc4ccccc4n3CC3CC3)n(Cc3cnn(-c4ccc[n+]([O-])c4)c3)c12 (stereo partly drawn) [Example 396, 3-[4-({5-[(7R)-7-amino-2-azabicyclo[2.2.1]heptane-2-carbonyl]-2-[1-(cyclopropylmethyl)-1H-indol-2-yl]-7-methoxy-1H-1,3-benzodiazol-1-yl}methyl)-1H-pyrazol-1-yl]pyridin-1-ium-1-olate] showed an IC50 of 51 nM. COc1cc(C(=O)N2C[C@H]3CC[C@@H]2[C@@H]3N)cc2nc(-c3cc4cccnc4n3CC3CC3)n(CC3CCN(C(=O)c4ccnc(Cl)n4)CC3)c12 [Example 230, (1R,4R,7R)-2-(1-{[1-(2-chloropyrimidine-4-carbonyl)piperidin-4-yl]methyl}-2-[1-(cyclopropylmethyl)-1H-pyrrolo[2,3-b]pyridin-2-yl]-7-methoxy-1H-1,3-benzodiazole-5-carbonyl)-2-azabicyclo[2.2.1]heptan-7-amine] was tested, and the IC50 was 237 nM. Compound COc1cc(C(=O)N2CC3CCC2[C@@H]3N)cc2nc(-c3cc4cccnc4n3CC3CC3)n(Cc3cnn(-c4ccccn4)c3)c12 (stereo partly drawn) [Example 400, (7R)-2-{2-[1-(cyclopropylmethyl)-1H-pyrrolo[2,3-b]pyridin-2-yl]-7-methoxy-1-{[1-(pyridin-2-yl)-1H-pyrazol-4-yl]methyl}-1H-1,3-benzodiazole-5-carbonyl)-2-azabicyclo[2.2.1]heptan-7-amine] has an IC50 of 57 nM. With N#Cc1ccc(C(=O)N2CC(Cn3c(-c4cc5ccccc5n4CC4CC4)nc4cc(C(=O)N5C[C@H]6CC[C@@H]5[C@@H]6N)cc(Cl)c43)C2)cc1 [Example 150, 4-[3-({5-[(1R,4R,7R)-7-amino-2-azabicyclo[2.2.1]heptane-2-carbonyl]-7-chloro-2-[1-(cyclopropylmethyl)-1H-indol-2-yl]-1H-1,3-benzodiazol-1-yl}methyl)azetidine-1-carbonyl]benzonitrile] the IC50 was 20 nM.
